For data set [1], the system named is SUDHL-4 xenograft. Briefly: SUDHL-4 xenograft efficacy and survival. It is filed as in vivo, C.B-17 SCID mouse. As to the method:
(§1) Female C.B.−17 SCID mice were purchased from Charles River Laboratories. Mice were 5–8 weeks old at the time of tumour implantation. All xenograft studies were conducted at our Association for the Assessment and Accreditation of Laboratory Animal Care accredited facility in Waltham, MA in accordance with ethical regulations described in the guidelines established by the internal Institutional Animal Care and Use Committee. The dendrimer conjugates were formulated in citrate/phosphate buffer pH 5.0, diluted 1:10 with 5% glucose containing 1% w/v Kolliphor HS15, and AZD4320 was formulated in 30% HP-β-CD and dosed as a weekly intravenous (IV) administration at a volume of 5 ml/kg at the indicated doses. Five million RS4;11, five million SUDHL-4 or five million OCI-LY-10 cells were injected subcutaneously in the right flank of mice in a volume of 0.1 ml. Tumour volumes (measured by caliper), animal body weight, and tumor condition were recorded twice weekly for the duration of the study. The tumour volume was calculated (taking length to be the longest diameter across the tumour and width to be the corresponding perpendicular diameter) using the formula: length (mm) x width (mm)^2/0.52. For efficacy studies, mice were randomized based on tumour volumes using stratified sampling and enrolled into control and treatment groups. Tumour growth inhibition from the start of treatment was quantified by measuring the difference in tumour volume between control and treated groups. Survival analysis was evaluated using Mantel-Cox test. Tumours were also taken for bioanalysis.

In data set [2] the test system is OCI-LY10 xenograft. Briefly: OCI-LY10 xenograft efficacy and survival. It is filed as in vivo, C.B-17 SCID mouse. Also noted: OCI-LY10 xenograft efficacy, individual animals: unit not given here. Particulars: for OCI-LY10 xenograft efficacy, individual animals: AZD0466 103 mg/kg (30mg/kg AZD4320). As to the method: as §1
Data set [3] can be described thus: Formulation dependent plasma and tumour pharmacokinetics of AZD4320 (Fig S2b). It is filed as in vivo. Particulars: mouse, 5 mg/kg IV, 30% HPbCD. As for the experimental part: Supplementary Figure 2. Formulation dependent efficacy of AZD4320 (a) A single 5mg/kg IV bolus dose of AZD4320 formulated in 30% hydroxypropyl-β-cyclodextrin (HP-β-CD) […]
Data in the graphs are represented as mean tumor volume
± SEM (n=5). Arrow indicates dosing schedule.(b) A pharmacokinetic profile from both […]
explained by differential profiles in the plasma. The plasma profiles are similar. The efficacy is consistent with the concentration profiles observed in the tumour (n=4, Tween formulation, yellow, n=8 HP-β-CD formulation, purple). Lines connect the mean values.
(1 picture or pasted object on this page, not shown here)

The nature of data set [4]: Mathematical model of in vivo disposition of drug-dendrimer conjugates. The settings on record: best fit of Eq. (3) to released AZD4320 in RS4;11 tumour. Also noted: species or system mouse.

Values joined by “and” are separate entries in the source; they are usually repeats but may differ in a detail not shown here. Equal entries are not always repeated.

In the case of AZD4320-MIDA-PEG2100 [AZD0466], the “animals with complete and durable regressions” value in data set [1] (SUDHL-4, 103 mg/kg AZD0466 + 10 mg/kg rituximab) was 5/6; in data set [1] (SUDHL-4, 172 mg/kg AZD0466 + 10 mg/kg rituximab) it was 6/6. In addition, in data set [1] (SUDHL-4, AZD0466 at various doses combined with 10 mg/kg rituximab), the “combination effect” value is reported as “tumour regressions were seen in the combination groups at all doses”. In addition, the “SUDHL-4 xenograft efficacy, Geo Mean” value in data set [1] (day 1) amounted to 200.82; in data set [1] (day 5), 191.7; in data set [1] (day 9), 255.655; in data set [1] (day 12), 291.711; in data set [1] (day 16) it was 450.847; in data set [1] (day 19) it was 493.153. Further, the “SUDHL-4 xenograft efficacy, Geo Mean” value in data set [1] (day 23) was determined as 795.158; in data set [1] (day 26) it was 1047.96; in data set [1] (day 29), 1181.66. Also, the “OCI-LY10 xenograft efficacy, individual animals” value in data set [2] (day 18) is 193 and 170 and 155 and 173 and 235 and 111 and 163 and 131; in data set [2] (day 21), 363 and 334 and 195 and 394 and 490 and 191 and 262 and 142; in data set [2] (day 25) it was 214 and 151 and 62 and 129 and 351 and 181 and 222 and 188; in data set [2] (day 28) it was 475 and 406 and 118 and 241 and 485 and 190 and 184 and 194; in data set [2] (day 32), 410 and 443 and 252 and 338 and 536 and 215 and 401 and 301; in data set [2] (day 35), 664 and 595 and 309 and 391 and 667 and 265 and 496 and 262. Moreover, the “OCI-LY10 xenograft efficacy, individual animals” value is 653 and 578 and 346 and 432 and 638 and 281 and 354 and 330 in data set [2] (day 39); 773 and 918 and 408 and 717 and 707 and 404 and 319 and 272 in data set [2] (day 42). In addition, in data set [2] (OCI-LY10, AZD0466 in combination with acalabrutinib), the “mice with complete regressions” value is given as 8/8. For the same compound, in data set [2] (OCI-LY10 DLBCL model), the “monotherapy activity” value is on record as “neither agent showed any demonstrable monotherapy activity”.
`CN(CCO)CCC(CSc1ccccc1)Nc1ccc(S(=O)(=O)NC(=O)c2ccc(N3CCC(C(O)c4ccccc4-c4ccc(Cl)cc4)CC3)cc2)cc1S(=O)(=O)C(F)(F)F` (stereo not shown) [AZD4320]: the concentration at 6 h in data set [3] (C.B-17 SCID, plasma, iv, 5 mg/kg, 6 h, study CIV-12-112) was determined as 65 nM; in data set [3] (C.B-17 SCID, tumour, iv, 5 mg/kg, Tumor, 6 h, study CIV-11-055), 312 nM; in data set [3] (C.B-17 SCID, tumour, iv, 5 mg/kg, Tumor, 6 h, study CIV-12-112) it was 436 nM. The concentration at 0.5 h in data set [3] (C.B-17 SCID, tumour, iv, 5 mg/kg, Tumor, 0.5 h, study CIV-11-055) was found to be 815 nM. This compound came in with a concentration at 1 h in data set [3] (C.B-17 SCID, tumour, iv, 5 mg/kg, Tumor, 1 h, study CIV-11-055) of 473 nM. Besides, the concentration at 24 h in data set [3] (C.B-17 SCID, tumour, iv, 5 mg/kg, Tumor, 24 h, study CIV-11-055) was 275 nM; in data set [3] (C.B-17 SCID, tumour, iv, 5 mg/kg, Tumor, 24 h, study CIV-12-112), 165 nM. Besides, the Concentration is 114 nM and 108 nM and 59 nM in data set [3] (Plasma, 6 h, study CIV-12-112); 750 nM and 857 nM and 503 nM in data set [3] (Tumor, 0.5 h, study CIV-11-055); 394 nM and 626 nM and 461 nM in data set [3] (Tumor, 1 h, study CIV-11-055); 253 nM and 344 nM and 313 nM in data set [3] (Tumor, 6 h, study CIV-11-055); 568 nM and 289 nM and 439 nM in data set [3] (Tumor, 6 h, study CIV-12-112); 196 nM and 164 nM and 174 nM in data set [3] (Tumor, 24 h, study CIV-11-055). Besides, the Concentration in data set [3] (Tumor, 24 h, study CIV-12-112) is 172 nM and 93 nM and 130 nM. For the same compound, the “Constant for return of released AZD4320 from tumour tissue to systemic circulation (first order) ktu” value in data set [4] came out at 0.053 h⁻¹.

(Values after publication PMC7835349 (Communications Biology, 2021).)
